In the test the test system is edema in the hind paws (carrageenan). The test can be described thus: carrageenan-induced hind paw edema, oral administration. The format is in vivo, male Wistar rats. The following applies: Rattus norvegicus; for inhibition in vivo at 8 mg/kg: 8 mg/kg orally. On the procedure:
That is, male Wistar rats weighing about 100 g, one group consisting of 5 to 7 animals, were given orally the compounds according to the present invention and then edema was induced in the hind paws by subcutaneous injections of 0.1 ml of 1% carrageenan 1 hour after the administration of the test compounds, and the volumes of the hind paws were measured by a volume differential meter.

Where [1] appears, read: 10 mg/kg orally, 1 hr, read-out: Inhibition (%) 1 hr.
[2] abbreviates: 10 mg/kg orally, 2 hr, read-out: Inhibition (%) 2 hr.
Setting [3] is: 10 mg/kg orally, 3 hr, read-out: Inhibition (%) 3 hr.
Setting [4] is: 10 mg/kg orally, 4 hr, read-out: Inhibition (%) 4 hr.
Where [5] appears, read: 10 mg/kg orally, 5 hr, read-out: Inhibition (%) 5 hr.
The mark [6] stands for this setting: 10 mg/kg orally, 6 hr, read-out: Inhibition (%) 6 hr.
[7] abbreviates: 1 h, read-out: Inhibition (%) 1 hr.
Setting [8] is: 2 h, read-out: Inhibition (%) 2 hr.
[9] abbreviates: 3 h, read-out: Inhibition (%) 3 hr.
The mark [10] stands for this setting: 4 h, read-out: Inhibition (%) 4 hr.
[11] abbreviates: 5 h, read-out: Inhibition (%) 5 hr.
Where [12] appears, read: 6 h, read-out: Inhibition (%) 6 hr.

Like-named read-outs stand apart in the source and are kept apart here.

`CC(C(N)=O)c1ccc2c(c1)C(=O)Cc1ccccc1S2` (stereo not drawn) [Compound 1, 2-(10,11-dihydro-11-oxodibenzo[b,f]thiepin-2-yl)-propionamide]: the inhibition in vivo at 10 mg/kg under setting [1] is 47.1%; the inhibition in vivo at 10 mg/kg under setting [2] is 66.7%; the inhibition in vivo at 10 mg/kg under setting [3] turned out to be 70.5%; the inhibition in vivo at 10 mg/kg under setting [4] was 73.6%; the inhibition in vivo at 10 mg/kg under setting [5] came out at 68%; the inhibition in vivo at 10 mg/kg under setting [6] is 66%.

Turning to `CC(C(=O)O)c1ccc2c(c1)C(=O)Cc1ccccc1S2` (stereo not drawn) [Compound 2, 2-(10,11-dihydro-11-oxodibenzo[b,f]thiepin-2-yl)-propionic acid], the inhibition in vivo at 1 mg/kg is, setting by setting: under setting [7], 53.8%; under setting [8], 57.3%; under setting [9], 70.9%; under setting [10], 69.6%; under setting [11], 68.7%; under setting [12], 65.6%. In addition, the inhibition in vivo at 10 mg/kg by setting is: under setting [7], 55%; under setting [8], 76.3%; under setting [9], 78%; under setting [10], 78.5%; under setting [11], 74.8%; under setting [12], 70%.

Take `CCOC(=O)C(C)c1ccc2c(c1)C(=O)Cc1ccccc1S2` (stereo not drawn) [Compound 3, Ethyl 2-(10,11-dihydro-11-oxodibenzo[b,f]thiepin-2-yl)-propionate]: the inhibition in vivo at 10 mg/kg under setting [1] was determined as 62.3%; the inhibition in vivo at 10 mg/kg under setting [2] amounted to 72%; the inhibition in vivo at 10 mg/kg under setting [3] is 79.9%; the inhibition in vivo at 10 mg/kg under setting [4] is 78.2%; the inhibition in vivo at 10 mg/kg under setting [5] was found to be 74.5%; the inhibition in vivo at 10 mg/kg under setting [6] was found to be 64.5%.

Consider `CC(C(=O)O)c1ccc2c(c1)CCc1ccccc1S2` (stereo not drawn) [Compound 4, 2-(10,11-dihydrodibenzo[b,f]thiepin-2-yl)-propionic acid], for which the inhibition in vivo at 10 mg/kg under setting [1] was found to be 47.2%; the inhibition in vivo at 10 mg/kg under setting [2] is 58.8%; the inhibition in vivo at 10 mg/kg under setting [3] is 54.6%; the inhibition in vivo at 10 mg/kg under setting [4] came to 48.3%; the inhibition in vivo at 10 mg/kg under setting [5] was 41%; the inhibition in vivo at 10 mg/kg under setting [6] came to 35%.

With `CCOC(=O)C(C)c1ccc2c(c1)CCc1ccccc1S2` (stereo not drawn) [Compound 5, Ethyl 2-(10,11-dihydrodibenzo[b,f]thiepin-2-yl)-propionate], the inhibition in vivo at 10 mg/kg reads like this: under setting [1], 56.6%; under setting [2], 68%; under setting [3], 67.4%; under setting [4], 52.2%; under setting [5], 38.7%; under setting [6], 29.3%.

For `CC(C(=O)O)c1ccc2c(c1)Sc1ccccc1CC2=O` (stereo not drawn) [Compound 6, 2-(10,11-dihydro-11-oxodibenzo[b,f]thiepin-3-yl)-propionic acid], the inhibition in vivo at 10 mg/kg was found to be 65.9% under setting [1]; 41.5% under setting [2]; 31.8% under setting [3]; 26.1% under setting [4]; 22.3% under setting [5]; 20.5% under setting [6].

As to `CCOC(=O)C(C)c1ccc2c(c1)Sc1ccccc1CC2=O` (stereo not drawn) [Compound 7, Ethyl 2-(10,11-dihydro-11-oxodibenzo[b,f]thiepin-3-yl)-propionate], the inhibition in vivo at 10 mg/kg under setting [1] was 58.7%; the inhibition in vivo at 10 mg/kg under setting [2] was found to be 39.6%; the inhibition in vivo at 10 mg/kg under setting [3] turned out to be 31.2%; the inhibition in vivo at 10 mg/kg under setting [4] was found to be 25.9%; the inhibition in vivo at 10 mg/kg under setting [5] is 22.3%; the inhibition in vivo at 10 mg/kg under setting [6] came out at 18.8%.

As to `CCOC(=O)C(C)c1ccc2c(c1)Sc1ccccc1CC2` (stereo not drawn) [Compound 8, Ethyl 2-(10,11-dihydrodibenzo[b,f]thiepin-3-yl)-propionate], the inhibition in vivo at 10 mg/kg was 43.2% under setting [1]; 37.8% under setting [2]; 26.9% under setting [3]; 20.1% under setting [4]; 15.8% under setting [5]; 15.1% under setting [6].

Regarding `CC(C(=O)O)c1ccc2c(c1)Sc1ccccc1CC2` (stereo not drawn) [Compound 9, 2-(10,11-dihydrodibenzo[b,f]thiepin-3-yl)-propionic acid], the inhibition in vivo at 10 mg/kg under setting [1] came to 52.1%; the inhibition in vivo at 10 mg/kg under setting [2] was found to be 41%; the inhibition in vivo at 10 mg/kg under setting [3] was 27.5%; the inhibition in vivo at 10 mg/kg under setting [4] was 21.3%; the inhibition in vivo at 10 mg/kg under setting [5] came to 16.6%; the inhibition in vivo at 10 mg/kg under setting [6] turned out to be 16.3%.

Regarding `CC(C(N)=O)c1ccc2c(c1)C(=O)Cc1ccccc1O2` (stereo not drawn) [Compound 10, 2-(10,11-dihydro-11-oxodibenzo[b,f]oxepin-2-yl)-propionamide], the inhibition in vivo at 10 mg/kg came out at 71.2% under setting [1]; 69.3% under setting [2]; 76.3% under setting [3]; 76.7% under setting [4]; 56.4% under setting [5]; 34.4% under setting [6].

For the molecule `CCOC(=O)C(C)c1ccc2c(c1)C(=O)Cc1ccccc1O2` (stereo not drawn) [Compound 11, Ethyl 2-(10,11-dihydro-11-oxodibenzo[b,f]oxepin-2-yl)-propionate], the inhibition in vivo at 10 mg/kg amounted to 21.2% under setting [1]; 56.8% under setting [2]; 64.9% under setting [3]; 70% under setting [4]; 62.8% under setting [5]; 52.6% under setting [6].

As to `CC(C(=O)O)c1ccc2c(c1)C(=O)Cc1ccccc1O2` (stereo not drawn) [Compound 12, 2-(10,11-dihydro-11-oxodibenzo[b,f]oxepin-2-yl)-propionic acid], the inhibition in vivo at 10 mg/kg reads like this: under setting [7], 34.2%; under setting [8], 58.3%; under setting [9], 79.4%; under setting [10], 83.1%; under setting [11], 71.1%; under setting [12], 51.4%.

With `CC(C(=O)O)c1ccc2c(c1)CCc1ccccc1O2` (stereo not drawn) [Compound 13, 2-(10,11-dihydrodibenzo[b,f]oxepin-2-yl)-propionic acid], the inhibition in vivo at 10 mg/kg by setting is: under setting [1], 42.4%; under setting [2], 55.5%; under setting [3], 65.4%; under setting [4], 63.3%; under setting [5], 49.1%; under setting [6], 33.3%.

As to `CCOC(=O)C(C)c1ccc2c(c1)CCc1ccccc1O2` (stereo not drawn) [Compound 14, Ethyl 2-(10,11-dihydrodibenzo[b,f]oxepin-2-yl)-propionate], the inhibition in vivo at 10 mg/kg by setting is: under setting [1], 48.6%; under setting [2], 67.6%; under setting [3], 60.3%; under setting [4], 53.2%; under setting [5], 35.8%; under setting [6], 26%.

For `CC(C(N)=O)c1ccc2c(c1)CCc1ccccc1O2` (stereo not drawn) [Compound 15, 2-(10,11-dihydrodibenzo[b,f]oxepin-2-yl)-propionamide], the inhibition in vivo at 10 mg/kg reads like this: under setting [1], 36.1%; under setting [2], 44.1%; under setting [3], 53.3%; under setting [4], 48.7%; under setting [5], 33%; under setting [6], 27.2%.

As to `CC(C(=O)O)c1ccc2c(c1)Oc1ccccc1CC2=O` (stereo not drawn) [Compound 16, 2-(10,11-dihydro-11-oxodibenzo[b,f]oxepin-3-yl)-propionic acid], the inhibition in vivo at 10 mg/kg under setting [1] was found to be 53.6%; the inhibition in vivo at 10 mg/kg under setting [2] was 49.9%; the inhibition in vivo at 10 mg/kg under setting [3] was 50.7%; the inhibition in vivo at 10 mg/kg under setting [4] was found to be 46.2%; the inhibition in vivo at 10 mg/kg under setting [5] was 37%; the inhibition in vivo at 10 mg/kg under setting [6] turned out to be 26.2%.

Regarding `CC(C(N)=O)c1cccc2c1Oc1ccccc1CC2=O` (stereo not drawn) [Compound 17, 2-(10,11-dihydro-11-oxodibenzo[b,f]oxepin-4-yl)-propionamide], the inhibition in vivo at 10 mg/kg under setting [1] amounted to 65.9%; the inhibition in vivo at 10 mg/kg under setting [2] came to 49.4%; the inhibition in vivo at 10 mg/kg under setting [3] amounted to 35.4%; the inhibition in vivo at 10 mg/kg under setting [4] is 29%; the inhibition in vivo at 10 mg/kg under setting [5] was 17.2%; the inhibition in vivo at 10 mg/kg under setting [6] turned out to be 13%.

On to `CC(C(=O)O)c1cccc2c1Oc1ccccc1CC2=O` (stereo not drawn) [Compound 18, 2-(10,11-dihydro-11-oxodibenzo[b,f]oxepin-4-yl)-propionic acid], for which the inhibition in vivo at 8 mg/kg (1 hr, read-out: Inhibition (%) 1 hr) worked out at 34.3%; the inhibition in vivo at 8 mg/kg (2 hr, read-out: Inhibition (%) 2 hr) was found to be 36.4%; the inhibition in vivo at 8 mg/kg (3 hr, read-out: Inhibition (%) 3 hr) stood at 38.3%; the inhibition in vivo at 8 mg/kg (4 hr, read-out: Inhibition (%) 4 hr) was found to be 36.1%; the inhibition in vivo at 8 mg/kg (5 hr, read-out: Inhibition (%) 5 hr) stood at 36.1%; the inhibition in vivo at 8 mg/kg (6 hr, read-out: Inhibition (%) 6 hr) was 35.1%.

For `CC(C(=O)O)c1cccc2c1Oc1ccccc1CC2` (stereo not drawn) [Compound 19, 2-(10,11-dihydrodibenzo[b,f]oxepin-4-yl)-propionic acid], the inhibition in vivo at 10 mg/kg reads like this: under setting [1], 45.1%; under setting [2], 51.3%; under setting [3], 28.2%; under setting [4], 25.1%; under setting [5], 18.7%; under setting [6], 10.2%.

These data come from patent publication US4205170A, “Propionic acid derivatives” (priority 1976, dated 1980).
